Experimental data taken from ChEMBL document CHEMBL5036354, “New Insights into the Structure-Activity Relationship and Neuroprotective Profile of Benzodiazepinone Derivatives of Neurounina-1 as Modulators of the Na+/Ca2+ Exchanger Isoforms” (J Med Chem, 2021).
The source made the active and inactive calls. The rule behind the calls is not given here.

Key:
BHK [1] = assay: Activation of dog NCX3 expressed in BHK cells assessed as forward NCX current at 10 uM at -120 mV holding potential by whole-cell patch clamp electrophysiology method; assay type: cell-based; details: Canis lupus familiaris, filed as activator
BHK [2] = assay: Activation of dog NCX1 expressed in BHK cells assessed as reverese NCX current at 10 uM at +60 mV holding potential by whole-cell patch clamp electrophysiology method; assay type: cell-based; details: Canis lupus familiaris, filed as activator
BHK [3] = assay: Activation of dog NCX1 expressed in BHK cells assessed as increase in Na+ free solution induced calcium level at 0.1 to 10 uM by fluo-4 AM dye based assay; assay type: cell-based; details: Canis lupus familiaris, filed as activator, dose 0.1-10 µM
BHK [4] = assay: Activation of dog NCX1 expressed in BHK cells assessed as increase in Na+ free solution induced calcium level at 10 uM by fluo-2 AM dye based assay; assay type: cell-based; details: Canis lupus familiaris, filed as activator
BHK [5] = assay: Activation of dog NCX3 expressed in BHK cells assessed as increase in Na+ free solution induced calcium level at 10 uM by fluo-2 AM dye based assay; assay type: cell-based; details: Canis lupus familiaris, filed as activator
BHK [6] = assay: Activation of dog NCX1 expressed in BHK cells assessed as forward NCX current at 10 uM at -120 mV holding potential by whole-cell patch clamp electrophysiology method; assay type: cell-based; details: Canis lupus familiaris, filed as activator
Cortical neurone [7] = assay: Neuroprotective activity against rat primary cortical neurons assessed as reduction in cell injury under hypoxic condition by MTT assay; assay type: functional, cell-based; details: dose 10.0 µM
BHK [8] = assay: Activation of dog NCX3 expressed in BHK cells assessed as increase in Na+ free solution induced calcium level at 0.1 to 10 uM by fluo-4 AM dye based assay; assay type: cell-based; details: Canis lupus familiaris, filed as activator, dose 0.1-10 µM
BHK [9] = assay: Activation of dog NCX3 expressed in BHK cells assessed as reverse NCX current at 10 uM at + 60 mV holding potential by whole-cell patch clamp electrophysiology method; assay type: cell-based; details: Canis lupus familiaris, filed as activator
Cortical neurone [10] = assay: Neuroprotective activity against rat primary cortical neurons assessed as reduction in cell injury under RX and chemical hypoxia condition by MTT assay; assay type: functional, cell-based; details: dose 10.0 µM
[11] = Inhibition of dog NCX1 expressed in BHK cells assessed as decrease in Na+ free solution induced calcium level by patch-clamp electrophysiology assay; assay type: cell-based; details: Canis lupus familiaris
Cortical neurone [12] = assay: Neuroprotective activity against rat primary cortical neurons assessed as reduction in cell injury at 10 uM preincubated with compound followed by compound washout and OGD and RX exposure by MTT assay; assay type: functional, cell-based
BHK [13] = assay: Inhibition of dog NCX1 expressed in BHK cells assessed as decrease in Na+ free solution induced calcium level at 10 uM by Fluo-2 AM dye based assay; assay type: cell-based; details: Canis lupus familiaris
BHK [14] = assay: Inhibition of dog NCX1 expressed in BHK cells assessed as decrease in Na+ free solution induced calcium level at 0.01 to 10 uM by Fluo-4 AM dye based assay; assay type: cell-based; details: Canis lupus familiaris, dose 0.01-10 µM

Row | Compound | Activity (BHK [1]) | Activity (BHK [2]) | Activity (BHK [3]) | Activity (BHK [4]) | Activity (BHK [5]) | Activity (BHK [6]) | Activity (Cortical neurone [7]) | Activity (BHK [8]) | Activity (BHK [9]) | Activity (Cortical neurone [10]) | IC50 [11] [µM] | Activity (Cortical neurone [12]) | inhibition (BHK [13]) | inhibition (BHK [14])
1 | CC1CCCCN1C(=O)CN1C(=O)CN=C(c2ccccc2)c2cc([N+](=O)[O-])ccc21 (stereo not drawn) | Active | Active | Active | Active | Active | Active | inactive | Active | Active | – | – | – | – | –
2 | O=C1CN=C(c2ccccc2Cl)c2cc([N+](=O)[O-])ccc2N1CN1CCCC1 | – | – | Active | Active | – | – | Dose-Dependent Effect | – | – | Dose-Dependent Effect | 10 | Active | – | –
3 | O=C1CN=C(c2ccccc2)c2cc([N+](=O)[O-])ccc2N1CCN1CCCC1 | – | – | – | – | – | – | inactive | – | – | – | – | – | Active | Active
